Measured values taken from ChEMBL document CHEMBL1149947, “Identification and chemical synthesis of MDL 105,212, a non-peptide tachykinin antagonist with high affinity for NK1 and NK2 receptors” (Bioorg Med Chem Lett, 1996).

Columns and labels:
Substance-P receptor = Substance-P receptor (Homo sapiens, UniProt P25103); test: Binding affinity against Neurokinin 1(NK1) receptor from human IM-9 cells using [I]-Bolton Hunter labeled SP; format: cell-based
Substance-K receptor = target: T1, Substance-K receptor (Homo sapiens, UniProt P21452); test: Binding affinity against human NK2 receptors from HSKR-1 cells using [125I]-Iodohistidyl NKA; format: cell-based
T1 sequence (P21452 whole entry): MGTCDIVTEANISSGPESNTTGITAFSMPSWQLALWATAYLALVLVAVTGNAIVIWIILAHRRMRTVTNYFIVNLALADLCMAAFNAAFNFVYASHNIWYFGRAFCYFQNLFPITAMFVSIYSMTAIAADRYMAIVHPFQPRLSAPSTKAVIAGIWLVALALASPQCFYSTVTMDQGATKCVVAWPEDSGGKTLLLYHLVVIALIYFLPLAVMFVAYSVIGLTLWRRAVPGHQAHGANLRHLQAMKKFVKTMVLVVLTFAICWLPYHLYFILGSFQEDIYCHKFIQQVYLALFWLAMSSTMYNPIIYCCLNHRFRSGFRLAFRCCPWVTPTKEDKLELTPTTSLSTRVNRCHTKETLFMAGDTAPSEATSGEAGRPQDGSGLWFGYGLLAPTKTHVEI

Neuromedin-K receptor = target: T2, Neuromedin-K receptor (Cavia porcellus, UniProt P30098); test: NK3 IC50 determined using [125I]bolton Hunter labeled eledoisin at NK3 receptors from guinea pig cerebral cortex; format: tissue-based
T2 sequence (P30098 whole entry): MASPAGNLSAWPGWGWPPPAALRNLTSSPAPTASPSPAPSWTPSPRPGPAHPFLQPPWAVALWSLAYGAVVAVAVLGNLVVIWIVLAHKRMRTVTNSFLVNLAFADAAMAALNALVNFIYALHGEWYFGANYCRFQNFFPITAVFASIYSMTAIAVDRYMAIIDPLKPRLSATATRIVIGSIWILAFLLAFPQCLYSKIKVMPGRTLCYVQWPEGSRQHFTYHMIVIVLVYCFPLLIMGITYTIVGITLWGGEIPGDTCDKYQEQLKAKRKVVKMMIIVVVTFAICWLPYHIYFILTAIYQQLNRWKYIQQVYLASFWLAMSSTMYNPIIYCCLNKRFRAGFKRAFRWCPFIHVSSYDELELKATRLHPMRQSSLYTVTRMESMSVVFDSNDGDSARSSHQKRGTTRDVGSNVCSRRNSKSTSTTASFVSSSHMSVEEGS

Substance-P receptor, sequence (P25103 whole entry): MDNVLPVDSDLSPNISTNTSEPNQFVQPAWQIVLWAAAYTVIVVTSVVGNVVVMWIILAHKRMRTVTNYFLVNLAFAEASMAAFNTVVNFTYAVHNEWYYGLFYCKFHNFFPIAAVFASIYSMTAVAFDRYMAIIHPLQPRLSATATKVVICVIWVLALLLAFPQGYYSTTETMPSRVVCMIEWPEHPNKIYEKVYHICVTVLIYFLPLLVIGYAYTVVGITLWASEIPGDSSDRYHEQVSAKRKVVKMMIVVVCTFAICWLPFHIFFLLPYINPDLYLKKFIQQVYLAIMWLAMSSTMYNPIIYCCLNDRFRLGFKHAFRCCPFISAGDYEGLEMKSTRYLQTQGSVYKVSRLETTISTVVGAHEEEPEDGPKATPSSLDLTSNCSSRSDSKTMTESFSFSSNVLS

Row | Compound | IC50 (Substance-P receptor) | IC50 (Substance-K receptor) | IC50 (Neuromedin-K receptor)
1 | COc1cc(OC)cc(C(=O)N2CCC(CCN3CCC(C(N)=O)(c4ccccc4)CC3)(c3ccc(Cl)c(Cl)c3)C2)c1 (configuration not stated) | 0.0699 µM | 0.0191 µM | –
2 | COc1ccccc1CN[C@H]1C2CCN(CC2)[C@H]1C(c1ccccc1)c1ccccc1 [CP-96345] | – | > 10 µM | > 10 µM
3 | COc1cc(C(=O)N2CCC(CCN3CCC(C(N)=O)(c4ccccc4)CC3)(c3ccc(Cl)c(Cl)c3)C2)cc(OC)c1OC (configuration not stated) | 0.00619 µM | 0.0188 µM | –
4 | COc1cccc(C(=O)N2CCC(CCN3CCC(C(N)=O)(c4ccccc4)CC3)(c3ccc(Cl)c(Cl)c3)C2)c1 (configuration not stated) | 0.107 µM | 0.012 µM | –
5 | COc1ccccc1CC(=O)N1CCC(CCN2CCC(C(N)=O)(c3ccccc3)CC2)(c2ccc(Cl)c(Cl)c2)C1 (configuration not stated) | 0.0482 µM | – | –
6 | NC(=O)C1(c2ccccc2)CCN(CCC2(c3ccc(Cl)c(Cl)c3)CCN(C(=O)c3ccccc3)C2)CC1 (configuration not stated) | 0.271 µM | – | –
7 | COc1cc(C(=O)N2CCC(CCN3CCC(C(N)=O)(c4ccccc4)CC3)(c3ccc(Cl)c(Cl)c3)C2)cc(OC)c1OC(C)C (configuration not stated) | 0.0659 µM | 0.0424 µM | –
8 | CCOC(=O)Oc1c(OC)cc(C(=O)N2CCC(CCN3CCC(C(N)=O)(c4ccccc4)CC3)(c3ccc(Cl)c(Cl)c3)C2)cc1OC (configuration not stated) | 0.252 µM | 0.0963 µM | –
9 | COc1cccc(OC)c1C(=O)N1CCC(CCN2CCC(C(N)=O)(c3ccccc3)CC2)(c2ccc(Cl)c(Cl)c2)C1 (configuration not stated) | 0.0228 µM | 0.0532 µM | –
10 | COc1c(C)cc(C(=O)N2CCC(CCN3CCC(C(N)=O)(c4ccccc4)CC3)(c3ccc(Cl)c(Cl)c3)C2)cc1C (configuration not stated) | 0.168 µM | 0.00694 µM | –
11 | CC(=O)NC1(c2ccccc2)CCN(CC[C@H](CN(C)C(=O)c2ccccc2)c2ccc(Cl)c(Cl)c2)CC1 [SAREDUTANT] | 0.593 µM | 0.00044 µM | 0.208 µM
12 | COc1cc(C(=O)N2CC[C@](CCN3CCC(C(N)=O)(c4ccccc4)CC3)(c3ccc(Cl)c(Cl)c3)C2)cc(OC)c1OC | 0.00311 µM | 0.0084 µM | 0.021 µM
13 | COc1ccc(C(=O)N2CCC(CCN3CCC(C(N)=O)(c4ccccc4)CC3)(c3ccc(Cl)c(Cl)c3)C2)c(OC)c1 (configuration not stated) | 0.127 µM | – | –
14 | CC(C)Oc1cccc(CC(=O)N2CCC(CCN3CCC(C(N)=O)(c4ccccc4)CC3)(c3ccc(Cl)c(Cl)c3)C2)c1 (configuration not stated) | 0.138 µM | 0.548 µM | –
15 | COc1cc(CC(=O)N2CCC(CCN3CCC(C(N)=O)(c4ccccc4)CC3)(c3ccc(Cl)c(Cl)c3)C2)cc(OC)c1OC (configuration not stated) | 0.0662 µM | 0.0555 µM | –
16 | COc1cc(C(=O)N2CCC(CCN3CCC(C(N)=O)(c4ccccc4)CC3)(c3ccc(Cl)c(Cl)c3)C2)cc(OC)c1C (configuration not stated) | 0.0641 µM | 0.0134 µM | –
17 | COc1ccc(C(=O)N2CCC(CCN3CCC(C(N)=O)(c4ccccc4)CC3)(c3ccc(Cl)c(Cl)c3)C2)cc1 (configuration not stated) | 0.634 µM | 0.0118 µM | –
18 | COc1ccccc1C(=O)N1CCC(CCN2CCC(C(N)=O)(c3ccccc3)CC2)(c2ccc(Cl)c(Cl)c2)C1 (configuration not stated) | 0.0736 µM | 0.0167 µM | –
19 | COc1c(Br)cc(C(=O)N2CCC(CCN3CCC(C(N)=O)(c4ccccc4)CC3)(c3ccc(Cl)c(Cl)c3)C2)cc1Br (configuration not stated) | 0.313 µM | 0.00404 µM | –
